From patent US9447015B1, “(S)-2′-vinyl-abscisic acid derivatives” (Valent BioSciences Corporation, priority 2015, dated 2016)

tested on: Arabidopsis thaliana seed germination; experiment: Arabidopsis seed germination assay (promotion of germination in the presence of (S)-ABA); assay type: in vivo; parameters: key to Rating: Arabidopsis seed germination promotion activity: −: Seeds germinated at approximately the same time as those treated with 0.3 ppm of (S)-ABA alone (i.e., treatment with the 2′-vinyl-(S)-ABA derivative showed no measurable effect in this assay configuration).; +: Seeds germinated 1 to 4 days earlier than those treated with 0.3 ppm of (S)-ABA alone.; ++: Seeds germinated 5 to 7 days earlier than those treated with 0.3 ppm of (S)-ABA alone.; +++: Seeds germinated 8 to 10 days earlier than those treated with 0.3 ppm of (S)-ABA alone; settings: 30 ppm compound in the presence of 0.3 ppm (S)-ABA; scored on day 14
Protocol: To determine whether the (S)-ABA derivatives of the present invention were effective antagonists, germination assays were performed with the model plant Arabidopsis thaliana. If the compounds are found to be antagonists, they may be useful to counter any undesirable side effects of (S)-ABA.
Arabidopsis seed was sterilized by shaking for five minutes in 200 proof ethanol, followed by shaking for five minutes in a 10% bleach solution. The seeds were then washed five times in sterile, distilled, de-ionized water and suspended in 0.1% phytoagar. The tubes containing the seeds were wrapped in aluminum foil and stratified at 4° C. for two days.
All compounds were tested at a concentration of 30 ppm in the presence or absence of 0.3 ppm (S)-ABA, in 24-well plates. For each compound, a 1000 ppm stock solution was prepared in distilled, deionized water containing 5% DMSO. The stock test solution (15 μL) was added to each well, plus or minus 1.5 μL of 100 ppm (S)-ABA in 5% DMSO. Appropriate amounts of distilled, de-ionized water was added to equalize volumes, and 450 μL of ½×Murashige and Skoog media containing 1.2% Bactoagar was then added to each well (final DMSO concentration was 0.5%). When the media solidified, ten to 15 sterile stratified Arabidopsis seeds were distributed into each well using a repeat pipettor. The plates were sealed with surgical tape and placed in a growth chamber running diurnal cycles of 12 hours of light at 24° C. and 12 hours of darkness at 19° C. The plates were scanned on days 3 through 14, and scored on day 14. The (S)-2′-vinyl-substituted ABA derivatives were scored on ability to promote germination in the presence of (S)-ABA. The results are summarized below in “Table 1: Arabidopsis seed germination promotion activity of 2′-vinyl-(S)-ABA derivatives.”

Row | SMILES | Rating: Arabidopsis seed germination promotion activity
1 | CC(=C/C(=O)O)/C=C/[C@@]1(O)C(/C=C/c2ccc(C)cc2)=CC(=O)CC1(C)C [Compound 4] | +++ (Seeds germinated 8 to 10 days earlier than those treated with 0.3 ppm of (S)-ABA alone.)
2 | COC(=O)/C=C(C)\C=C\[C@@]1(O)C(/C=C/c2ccc(Cl)c(C(F)(F)F)c2)=CC(=O)CC1(C)C [Compound 14] | ++ (Seeds germinated 5 to 7 days earlier than those treated with 0.3 ppm of (S)-ABA alone.)
3 | CC(=C/C(=O)O)/C=C/[C@@]1(O)C(/C=C/c2c(F)cccc2F)=CC(=O)CC1(C)C [Compound 6] | −
4 | CC(=C/C(=O)O)/C=C/[C@@]1(O)C(/C=C/c2ccc(F)cc2)=CC(=O)CC1(C)C [Compound 2] | + (Seeds germinated 1 to 4 days earlier than those treated with 0.3 ppm of (S)-ABA alone.)
5 | CC(=C/C(=O)O)/C=C/[C@@]1(O)C(/C=C/c2ccc(C#N)cc2)=CC(=O)CC1(C)C [Compound 3] | ++ (Seeds germinated 5 to 7 days earlier than those treated with 0.3 ppm of (S)-ABA alone.)
6 | CC(=C/C(=O)O)/C=C/[C@@]1(O)C(/C=C/c2ccc(Cl)c(Cl)c2)=CC(=O)CC1(C)C [Compound 19] | ++ (Seeds germinated 5 to 7 days earlier than those treated with 0.3 ppm of (S)-ABA alone.)
7 | COC(=O)/C=C(C)\C=C\[C@@]1(O)C(/C=C/c2ccccc2Cl)=CC(=O)CC1(C)C [Compound 12] | + (Seeds germinated 1 to 4 days earlier than those treated with 0.3 ppm of (S)-ABA alone.)
8 | COC(=O)/C=C(C)\C=C\[C@@]1(O)C(/C=C/c2cccc(C(F)(F)F)c2Cl)=CC(=O)CC1(C)C [Compound 13] | + (Seeds germinated 1 to 4 days earlier than those treated with 0.3 ppm of (S)-ABA alone.)
9 | COC(=O)/C=C(C)\C=C\[C@@]1(O)C(/C=C/c2ccc(Cl)c(F)c2)CC(=O)CC1(C)C (some centres unmarked) [Compound 9] | ++ (Seeds germinated 5 to 7 days earlier than those treated with 0.3 ppm of (S)-ABA alone.)
10 | CC(=C/C(=O)O)/C=C/[C@@]1(O)C(/C=C/c2ccncc2)=CC(=O)CC1(C)C [Compound 38] | −
11 | CC(=C/C(=O)O)/C=C/[C@@]1(O)C(/C=C/c2cccc(C(F)(F)F)c2F)=CC(=O)CC1(C)C [Compound 31] | +++ (Seeds germinated 8 to 10 days earlier than those treated with 0.3 ppm of (S)-ABA alone.)
12 | CC(=C/C(=O)O)/C=C/[C@@]1(O)C(/C=C/c2cc(Cl)cc(Cl)c2)=CC(=O)CC1(C)C [Compound 16] | ++ (Seeds germinated 5 to 7 days earlier than those treated with 0.3 ppm of (S)-ABA alone.)
13 | CC(=C/C(=O)O)/C=C/[C@@]1(O)C(/C=C/c2cccc(F)c2)=CC(=O)CC1(C)C [Compound 20] | ++ (Seeds germinated 5 to 7 days earlier than those treated with 0.3 ppm of (S)-ABA alone.)
14 | CC(=C/C(=O)O)/C=C/[C@@]1(O)C(/C=C/c2cc(C(F)(F)F)ccc2F)=CC(=O)CC1(C)C [Compound 27] | ++ (Seeds germinated 5 to 7 days earlier than those treated with 0.3 ppm of (S)-ABA alone.)
15 | CC1=CC(=O)CC(C)(C)[C@@]1(O)/C=C/C(C)=C/C(=O)O [(S)-ABA, (S)-abscisic acid, reference compound] | −
16 | CC(=C/C(=O)O)/C=C/[C@@]1(O)C(/C=C/c2ccc(F)c(Cl)c2)=CC(=O)CC1(C)C [Compound 8] | +++ (Seeds germinated 8 to 10 days earlier than those treated with 0.3 ppm of (S)-ABA alone.)
17 | CC(=C/C(=O)O)/C=C/[C@@]1(O)C(/C=C/c2ccc(F)cc2F)=CC(=O)CC1(C)C [Compound 22] | ++ (Seeds germinated 5 to 7 days earlier than those treated with 0.3 ppm of (S)-ABA alone.)

same assay, conditions: seed germination assay, 30 ppm with 0.3 ppm (S)-ABA

Row | SMILES | antagonist nature compared to (S)-ABA
18 | CC(=C/C(=O)O)/C=C/[C@@]1(O)C(/C=C/c2ccc(C)cc2)=CC(=O)CC1(C)C [Compound 4] | antagonists of (S)-ABA
19 | CC(=C/C(=O)O)/C=C/[C@@]1(O)C(/C=C/c2cccc(C(F)(F)F)c2F)=CC(=O)CC1(C)C [Compound 31] | antagonists of (S)-ABA
20 | CC(=C/C(=O)O)/C=C/[C@@]1(O)C(/C=C/c2ccc(F)c(Cl)c2)=CC(=O)CC1(C)C [Compound 8] | antagonists of (S)-ABA
